Test results published in patent publication US10477864B2, “Microbiocidal quinoline (thio)carboxamide derivatives” (priority 2016, dated 2019).

Experiments:
[1] = tested on: Glomerella lagenarium (Colletotrichum lagenarium); experiment: Glomerella lagenarium (Colletotrichum lagenarium) / liquid culture (anthracnose); assay type: cell-based; conditions: Colletotrichum orbiculare; read-out: control of Glomerella lagenarium
Fusarium culmorum [2] = experiment: microbe, parasite or virus in culture; assay type: cell-based; conditions: read-out: control of Fusarium culmorum
Fusarium culmorum [3] = experiment: whole plant or invertebrate; assay type: in vivo; conditions: in Triticum aestivum, read-out: control of Fusarium culmorum
[4] = tested on: Botryotinia fuckeliana (Botrytis cinerea); experiment: Botryotinia fuckeliana (Botrytis cinerea) / liquid culture (gray mould); assay type: cell-based; conditions: 72 h, read-out: control of Botryotinia fuckeliana
Gaeumannomyces graminis = Gaeumannomyces graminis / liquid culture (take-all of cereals); assay type: cell-based; conditions: read-out: control of Gaeumannomyces graminis
[5] = tested on: Monographella nivalis (Microdochium nivale); experiment: Monographella nivalis (Microdochium nivale) / liquid culture (foot rot cereals); assay type: cell-based; conditions: 96 h, read-out: control of Monographella nivalis
[6] = tested on: Magnaporthe grisea (Pyricularia oryzae); experiment: microbe, parasite or virus in culture; assay type: cell-based; conditions: 72 h, read-out: control of Magnaporthe grisea

SMILES | inhibition of growth at 200 ppm [1] | inhibition of growth at 200 ppm (Fusarium culmorum [2]) | pest or weed control at 200 ppm (Fusarium culmorum [3]) | inhibition of growth at 200 ppm [4] | inhibition of growth at 200 ppm (Gaeumannomyces graminis) | inhibition of growth at 200 ppm [5] | inhibition of growth at 200 ppm [6] | melting point
CC(C)(NC(=O)c1cnc2ccccc2c1)C(C)(C)c1ccccc1F [Compound E-1, N-[2-(2-fluorophenyl)-1,1,2-trimethyl-propyl]quinoline-3-carboxamide] | ≥ 80% | ≥ 80% | ≥ 80% | ≥ 80% | ≥ 80% | ≥ 80% | – | –
CC(C#N)(Cc1ccc(Cl)cc1)NC(=O)c1cnc2c(F)cccc2c1 (centres unmarked) [Compound E-7, N-[2-(4-chlorophenyl)-1-cyano-1-methyl-ethyl]-8-fluoro-quinoline-3-carboxamide] | – | ≥ 80% | – | ≥ 80% | ≥ 80% | – | – | –
CC(C#N)(Cc1ccc(F)cc1F)NC(=O)c1cnc2c(F)cccc2c1 (centres unmarked) [Compound E-8, N-[1-cyano-2-(2,4-difluorophenyl)-1-methyl-ethyl]-8-fluoro-quinoline-3-carboxamide] | – | ≥ 80% | – | ≥ 80% | ≥ 80% | – | – | –
CC(C#N)(Cc1ccccc1)NC(=O)c1cnc2c(F)cccc2c1 (centres unmarked) [Compound E-10, N-(1-cyano-1-methyl-2-phenyl-ethyl)-8-fluoro-quinoline-3-carboxamide] | – | ≥ 80% | ≥ 80% | ≥ 80% | ≥ 80% | – | – | –
CC(C)(C)C(Cc1ccccc1)NC(=O)c1cnc2c(F)cccc2c1 (centres unmarked) [Compound E-12, N-(1-benzyl-2,2-dimethyl-propyl)-8-fluoro-quinoline-3-carboxamide] | ≥ 80% | ≥ 80% | ≥ 80% | ≥ 80% | – | ≥ 80% | ≥ 80% | 163 to 164 °C
CC(C)CC(C)(Cc1ccccc1)NC(=O)c1cnc2ccccc2c1 (centres unmarked) [Compound E-13, N-(1-benzyl-1,3-dimethyl-butyl)quinoline-3-carboxamide] | ≥ 80% | ≥ 80% | ≥ 80% | ≥ 80% | ≥ 80% | ≥ 80% | – | –
O=C(NC(Cc1ccccc1)CC(F)(F)F)c1cnc2c(F)cccc2c1 (centres unmarked) [Compound E-30, N-(1-benzyl-3,3,3-trifluoro-propyl)-8-fluoro-quinoline-3-carboxamide] | ≥ 80% | ≥ 80% | ≥ 80% | ≥ 80% | – | ≥ 80% | ≥ 80% | 140 to 142 °C
Cc1ccc(CC(C)(CC(C)C)NC(=O)c2cnc3c(F)cccc3c2)cc1 (centres unmarked) [Compound E-31, N-[1,3-dimethyl-1-(p-tolylmethyl)butyl]-8-fluoro-quinoline-3-carboxamide] | ≥ 80% | ≥ 80% | – | ≥ 80% | – | ≥ 80% | ≥ 80% | 116 to 118 °C
Cc1cccc(CC(C)(CC(C)C)NC(=O)c2cnc3c(F)cccc3c2)c1 (centres unmarked) [Compound E-33, N-[1,3-dimethyl-1-(m-tolylmethyl)butyl]-8-fluoro-quinoline-3-carboxamide] | ≥ 80% | ≥ 80% | – | ≥ 80% | – | ≥ 80% | ≥ 80% | 94 to 96 °C
CC(C)(F)CC(C)(Cc1ccccc1)NC(=O)c1cnc2ccccc2c1 (centres unmarked) [Compound E-57, N-(1-benzyl-3-fluoro-1,3-dimethyl-butyl)quinoline-3-carboxamide] | ≥ 80% | ≥ 80% | ≥ 80% | ≥ 80% | – | ≥ 80% | ≥ 80% | –
CC(Cc1ccccc1)(CC(F)(F)F)NC(=O)c1cnc2c(Cl)cccc2c1 (centres unmarked) [Compound E-60, N-(1-benzyl-3,3,3-trifluoro-1-methyl-propyl)-8-chloro-quinoline-3-carboxamide] | ≥ 80% | ≥ 80% | ≥ 80% | ≥ 80% | – | ≥ 80% | ≥ 80% | 141 to 144 °C
CC(C)C[C@@H](Cc1ccccc1)NC(=O)c1cnc2c(F)cccc2c1 [Compound F-4, N-[(1S)-1-benzyl-3-methyl-butyl]-8-fluoro-quinoline-3-carboxamide] | ≥ 80% | ≥ 80% | ≥ 80% | ≥ 80% | ≥ 80% | ≥ 80% | – | –
CC(C)C[C@](C)(Cc1ccccc1)NC(=O)c1cnc2ccccc2c1 [Compound F-5, N-[(1R)-1-benzyl-1,3-dimethyl-butyl]quinoline-3-carboxamide] | ≥ 80% | ≥ 80% | ≥ 80% | ≥ 80% | ≥ 80% | ≥ 80% | – | –
CC(C)C[C@](C)(Cc1ccccc1Cl)NC(=O)c1cnc2c(F)cccc2c1 [Compound F-7, N-[(1R)-1-[(2-chlorophenyl)methyl]-1,3-dimethyl-butyl]-8-fluoro-quinoline-3-carboxamide] | ≥ 80% | ≥ 80% | – | ≥ 80% | ≥ 80% | – | – | –
CC(C)C[C@@](C)(Cc1ccccc1Cl)NC(=O)c1cnc2c(F)cccc2c1 [Compound F-8, N-[(1S)-1-[(2-chlorophenyl)methyl]-1,3-dimethyl-butyl]-8-fluoro-quinoline-3-carboxamide] | ≥ 80% | ≥ 80% | – | ≥ 80% | ≥ 80% | ≥ 80% | – | –
C=CC[C@](C)(Cc1ccccc1)NC(=O)c1cnc2c(F)cccc2c1 [Compound F-16, N-[(1R)-1-benzyl-1-methyl-but-3-enyl]-8-fluoro-quinoline-3-carboxamide] | ≥ 80% | ≥ 80% | ≥ 80% | ≥ 80% | ≥ 80% | – | – | –
CC(C)(C)C[C@](C)(Cc1ccccc1)NC(=O)c1cnc2c(F)cccc2c1 [Compound F-17, N-[(1R)-1-benzyl-1,3,3-trimethyl-butyl]-8-fluoro-quinoline-3-carboxamide] | ≥ 80% | ≥ 80% | ≥ 80% | ≥ 80% | ≥ 80% | – | – | –
CC(F)(F)C[C@](C)(Cc1ccccc1)NC(=O)c1cnc2c(F)cccc2c1 [Compound F-39, N-[(1S)-1-benzyl-3,3-difluoro-1-methyl-butyl]-8-fluoro-quinoline-3-carboxamide] | ≥ 80% | ≥ 80% | ≥ 80% | ≥ 80% | – | ≥ 80% | ≥ 80% | –
